In patent publication US20250152591A1, “TREATMENT OF HEMATOLOGICAL MALIGNANCIES WITH MENIN INHIBITORS AND P-GLYCOPROTEIN INHIBITORS” (Kura Oncology, Inc., priority 2022, published 2025):
Read-outs that look alike come from different tables or passages of the source.

What was measured:
P-gp = P-gp (Homo sapiens, UniProt P08183); experiment: in vitro; conditions: MDCK-MDR1, pH 7.4
Protocol: MDCK epithelial cells stably transfected with the human MDR1 gene (the gene encoding for the efflux protein P-gp) were seeded on a Multiscreen™ plate (Millipore, MA, USA) and formed a confluent monolayer over 4 days prior to the experiment. To verify the MDR1-MDCK cell monolayers were properly formed, aliquots of the cell buffers were analyzed by fluorescence to determine the transport of the impermeable dye Lucifer Yellow. Any deviations from control values are reported.
MDR1-MDCK cells were incubated with these buffers for 2 h, and the receiver side buffer was removed for analysis by LC-MS/MS.
The rate of passage of the test compounds through this cell monolayer barrier from apical to basolateral (A→B) in this bi-directional transport assay was used to determine the apparent permeability coefficient (Papp). Receiver, donor, and dosing solution concentrations were quantified using a calibration curve prepared in transport buffer solution (pH 7.4). Papp is calculated as
where dQ/dt is rate of permeation, C0 is initial concentration of test agent, and A is the area of monolayer (0.11 cm^2). The basolateral to apical (B→A) to apical to basolateral (A→B) apparent permeability coefficient ratio
When RE>2 for a tested compound, the tested compound is a potential substrate for P-gp.
Rantinidine, talinolol, warfarin, and loperamide (±2 μM elacridar) were tested as reference compounds and each was tested at a concentration of 10 μM.

MV4;11-PGP cell line = experiment: CellTiter-Glo cell viability assay, MV4;11-PGP; type: cell-based; parameters: unit of the concentration uncertain; conditions: second set of experiments
Protocol: (§1) The influence of efflux pumps on the antitumor activity of the test compounds at steady state (more clinically relevant) were evaluated using P-gp-transfected AML cells (MV4;11 cells) in 6-day viability assays.
(§2) A P-gp-expressing KMT2A(MLL)-rearranged cell line model was developed by lentiviral transduction of the MV4;11 parental cell line and then selection for either Luciferase ORF (MV4;11-Control) or P-gp ORF (MV4;11-PGP).
(§3) […] Cell viability was measured by CellTiter-Glo® Luminescent Cell Viability Assay (CTG assay, Promega Corp.) and % Viability was quantified by normalizing to the luminescence values of DMSO-only treated cells. The dose-response curves and IC50's were calculated using GraphPad Prism 9.4.1.
(§4) The measured luminescence in the live cells of the MV4;11-Control and MV4;11-PGP cells that were treated with Compound I only (+DMSO), Compound I+posaconazole […], and valspodar (1 mM) are shown in FIGS. 5A and 5B.
(§5) In a second set of experiments, MV4;11-Control and MV4;11-PGP cell lines were treated as described above with five menin inhibitors, including Compound I, SNDX-5613, Compound A, Compound B, and Compound C, at concentrations ranging from 0 to 1000 nM. All tested compounds dropped in potency due to the P-gp expression as shown in FIGS. 6A-6J and in Tables 5 and 6 (indicated by increased IC50 values between “MV4;11-Control (Compound+DMSO)” and “MV4;11-PGP (Compound+DMSO)” entries).

MV4;11-Control cell line = experiment: CellTiter-Glo cell viability assay, MV4;11-Control; type: cell-based; parameters: unit of the concentration uncertain; conditions: second set of experiments
Protocol: as §1, §2, §3, §4, §5

[1] = 144 h, 0 to 1000 nM, Table 5, read-out: IC50 MV4;11-PGP (Compound + DMSO)
[2] = 144 h, 0 to 1000 nM, Table 6, read-out: IC50 MV4;11-PGP (Compound + DMSO)
[3] = posaconazole (1.5 (unit uncertain)), Table 5, read-out: IC50 MV4;11-PGP (Compound + posaconazole)
[4] = valspodar (1 (unit uncertain)), Table 6, read-out: IC50 MV4;11-PGP (Compound + valspodar)
[5] = 144 h, 0 to 1000 nM, Table 5, read-out: IC50 MV4;11-Control (Compound + DMSO)
[6] = 144 h, 0 to 1000 nM, Table 6, read-out: IC50 MV4;11-Control (Compound + DMSO)
[7] = posaconazole (1.5 (unit uncertain)), Table 5, read-out: IC50 MV4;11-Control (Compound + posaconazole)
[8] = valspodar (1 (unit uncertain)), Table 6, read-out: IC50 MV4;11-Control (Compound + valspodar)

Sequence of P-gp (P08183 whole entry): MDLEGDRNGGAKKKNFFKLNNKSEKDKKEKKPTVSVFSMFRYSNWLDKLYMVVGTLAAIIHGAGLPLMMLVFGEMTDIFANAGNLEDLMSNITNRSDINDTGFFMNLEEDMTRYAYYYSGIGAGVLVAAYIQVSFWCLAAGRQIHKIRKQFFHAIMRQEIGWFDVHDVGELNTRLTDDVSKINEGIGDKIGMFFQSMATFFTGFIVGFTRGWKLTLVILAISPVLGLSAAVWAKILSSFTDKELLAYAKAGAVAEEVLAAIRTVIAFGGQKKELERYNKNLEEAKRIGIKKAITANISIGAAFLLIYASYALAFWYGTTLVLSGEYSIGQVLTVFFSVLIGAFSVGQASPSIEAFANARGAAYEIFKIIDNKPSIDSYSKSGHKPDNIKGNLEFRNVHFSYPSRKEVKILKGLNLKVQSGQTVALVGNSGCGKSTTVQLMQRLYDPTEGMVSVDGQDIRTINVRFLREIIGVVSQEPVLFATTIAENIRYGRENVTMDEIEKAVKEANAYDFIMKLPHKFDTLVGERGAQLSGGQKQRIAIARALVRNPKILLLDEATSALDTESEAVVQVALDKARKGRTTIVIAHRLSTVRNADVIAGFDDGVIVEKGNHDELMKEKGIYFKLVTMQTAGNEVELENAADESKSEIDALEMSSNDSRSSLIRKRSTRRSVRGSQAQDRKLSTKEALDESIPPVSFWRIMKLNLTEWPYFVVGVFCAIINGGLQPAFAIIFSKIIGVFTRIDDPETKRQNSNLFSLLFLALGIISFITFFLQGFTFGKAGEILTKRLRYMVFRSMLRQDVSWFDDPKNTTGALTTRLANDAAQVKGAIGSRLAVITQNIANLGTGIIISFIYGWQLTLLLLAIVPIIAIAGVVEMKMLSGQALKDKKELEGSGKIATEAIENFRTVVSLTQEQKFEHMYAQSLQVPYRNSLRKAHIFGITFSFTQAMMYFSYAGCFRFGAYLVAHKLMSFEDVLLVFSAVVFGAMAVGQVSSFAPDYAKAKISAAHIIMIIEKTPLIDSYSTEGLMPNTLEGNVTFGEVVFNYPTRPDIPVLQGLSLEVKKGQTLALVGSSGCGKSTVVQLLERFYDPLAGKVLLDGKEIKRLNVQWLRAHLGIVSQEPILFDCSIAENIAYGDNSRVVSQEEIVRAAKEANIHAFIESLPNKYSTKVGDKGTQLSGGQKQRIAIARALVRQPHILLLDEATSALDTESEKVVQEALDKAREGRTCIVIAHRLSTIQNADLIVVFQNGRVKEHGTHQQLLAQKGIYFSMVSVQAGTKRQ

With `CNC(=C[N+](=O)[O-])NCCSCc1ccc(CN(C)C)o1` [Ranitidine] the Papp A→B at 2 h (P-gp) was 0.0514 ×10⁻⁶ cm/s and the Papp B→A at 2 h (P-gp) was 4.35 ×10⁻⁶ cm/s.

For `CC(=O)CC(c1ccccc1)c1c(O)c2ccccc2oc1=O` (centres unmarked) [Warfarin], the Papp A→B at 2 h (P-gp) was 21.5 ×10⁻⁶ cm/s and the Papp B→A at 2 h (P-gp) was 32.3 ×10⁻⁶ cm/s.

In the case of `C=CC(=O)N[C@@H]1CCCN(Cc2ccnc(C(=O)Nc3ccc(-c4cc5c(N6CCOCC6)ncnc5[nH]4)cc3)c2)C1` [Compound C], the IC50 (MV4;11-PGP cell line; [1]) is reported as 716 nM, the IC50 (MV4;11-PGP cell line; [2]) is reported as 764 nM and the IC50 (MV4;11-PGP cell line; [3]) is reported as 349 nM. It also gave an IC50 (MV4;11-PGP cell line; [4]) of 231 nM, an IC50 (MV4;11-Control cell line; [5]) of 236 nM and an IC50 (MV4;11-Control cell line; [6]) of 267 nM. For the same compound, the IC50 (MV4;11-Control cell line; [7]) was 222 nM and the IC50 (MV4;11-Control cell line; [8]) was 230 nM.

Work on `COc1cc(-c2ccc(CN[C@H]3C[C@@H](O)[C@@H](N(C)c4ncnc5sc(CC(F)(F)F)cc45)C3)cc2)nnc1OC` [Compound A] yielded an IC50 (MV4;11-PGP cell line; [1]) of 22 nM, an IC50 (MV4;11-PGP cell line; [2]) of 21.3 nM and an IC50 (MV4;11-PGP cell line; [3]) of 4.91 nM. The IC50 (MV4;11-PGP cell line; [4]) was 2.41 nM, the IC50 (MV4;11-Control cell line; [5]) was 2.28 nM and the IC50 (MV4;11-Control cell line; [6]) was 2.07 nM. For the same compound, the IC50 (MV4;11-Control cell line; [7]) was 2.01 nM and the IC50 (MV4;11-Control cell line; [8]) was 2.1 nM.
